Measurements: patent US10875857B2, “1-amino-triazolo(1,5-A)pyridine-substituted urea derivative and uses thereof” (Kala Pharmaceuticals, Inc., priority 2014, dated 2020)

What was measured:
[1] = biological target: T1, VEGFR2 (Homo sapiens, UniProt P35968); experiment: Cellular VEGFR2 tyrosine auto-phosphorylation assay in HUE cells after VEGF-A stimulation (sandwich ELISA); assay type: cell-based; conditions: 90 min incubation with compound, then 3 min stimulation with 100 ng/ml VEGF-A, phosphorylated VEGFR2 by ELISA, read-out: cellular 1050 values, VEGFR2
T1 construct: The human umbilical endothelial (HUE) cell line expresses high levels of VEGFR2; endogenous in cells; host or cells: HUE (human umbilical endothelial) cell line
T1 sequence (P35968 20-1356): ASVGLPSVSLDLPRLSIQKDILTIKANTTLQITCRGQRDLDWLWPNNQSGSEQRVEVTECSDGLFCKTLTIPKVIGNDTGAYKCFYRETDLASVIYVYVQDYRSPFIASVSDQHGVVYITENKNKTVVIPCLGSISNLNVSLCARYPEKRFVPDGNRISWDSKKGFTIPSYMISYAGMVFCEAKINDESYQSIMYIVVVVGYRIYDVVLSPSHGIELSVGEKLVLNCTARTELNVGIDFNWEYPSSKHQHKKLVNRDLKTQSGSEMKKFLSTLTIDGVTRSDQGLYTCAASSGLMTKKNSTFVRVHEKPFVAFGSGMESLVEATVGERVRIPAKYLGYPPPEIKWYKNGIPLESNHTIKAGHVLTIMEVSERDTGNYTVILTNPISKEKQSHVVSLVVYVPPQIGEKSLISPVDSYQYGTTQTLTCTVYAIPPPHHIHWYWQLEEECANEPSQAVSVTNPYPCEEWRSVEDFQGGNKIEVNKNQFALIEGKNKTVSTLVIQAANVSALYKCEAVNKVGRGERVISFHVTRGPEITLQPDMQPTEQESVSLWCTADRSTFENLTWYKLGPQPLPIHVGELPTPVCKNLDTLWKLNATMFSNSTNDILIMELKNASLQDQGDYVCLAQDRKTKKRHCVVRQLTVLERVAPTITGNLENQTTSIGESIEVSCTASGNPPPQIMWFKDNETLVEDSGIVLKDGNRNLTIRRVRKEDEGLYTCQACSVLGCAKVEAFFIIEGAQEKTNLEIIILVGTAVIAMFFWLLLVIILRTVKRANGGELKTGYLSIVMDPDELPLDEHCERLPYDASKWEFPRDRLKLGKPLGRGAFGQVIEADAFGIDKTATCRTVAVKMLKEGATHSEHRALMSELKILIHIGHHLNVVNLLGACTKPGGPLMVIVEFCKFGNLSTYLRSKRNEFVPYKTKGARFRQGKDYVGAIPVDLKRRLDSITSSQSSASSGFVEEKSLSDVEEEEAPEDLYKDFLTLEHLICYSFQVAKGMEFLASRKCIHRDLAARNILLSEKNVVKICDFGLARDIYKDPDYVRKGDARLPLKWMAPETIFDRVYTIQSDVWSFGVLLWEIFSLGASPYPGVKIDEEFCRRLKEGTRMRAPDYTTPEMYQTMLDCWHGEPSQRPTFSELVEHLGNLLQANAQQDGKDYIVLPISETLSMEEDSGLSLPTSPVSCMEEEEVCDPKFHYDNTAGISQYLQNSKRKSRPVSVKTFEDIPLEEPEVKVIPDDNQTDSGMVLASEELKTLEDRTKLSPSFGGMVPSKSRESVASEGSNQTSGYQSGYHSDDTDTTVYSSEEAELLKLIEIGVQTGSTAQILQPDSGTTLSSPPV
Method: The human umbilical endothelial (HUE) cell line expresses high levels of VEGFR2. The compound prepared in Example 2 above, 1-(4-(3-amino-[1,2,3]triazolo[1,5-a]pyridin-4-yl)phenyl)-3-(3-chlorophenyl)urea, was tested for the ability to inhibit tyrosine auto-phosphorylation of this receptor after stimulation with vascular endothelial growth factor A (VEGF-A). HUE cells were plated into multi-well cell culture plates in endothelial cell growth medium (ECGM) supplemented with 10% fetal calf serum (FCS). After starvation in endothelial cell basal medium (ECBM) supplemented with […] overnight cells were incubated with compounds in serum-free ECBM. […] Cells were incubated for 90 min at 37° C. in ECBM with the serial diluted compound and then stimulated for 3 min with 100 ng/ml VEGF-A. Cells were lysed, and then levels of phosphorylated VEGFR2 were determined in a sandwich ELISA assay formatted in a multi-well plate using a VEGFR2 specific capture antibody and an anti-phosphotyrosine VEGFR2 detection antibody. […] IC50 values were determined by fitting the converted eight point dose response data to a four-parameter logistic equation using GRAPHPAD PRISM® 5.01 software.

[2] = biological target: T2, PDGFR-β (Mus musculus, UniProt P05622); experiment: Cellular PDGFR-β tyrosine auto-phosphorylation assay in NIH3T3 cells after PDGF-BB stimulation (sandwich ELISA); assay type: cell-based, murine; conditions: 90 min incubation with compound, then 3 min stimulation with 100 ng/ml PDGF-BB, phosphorylated PDGFR-β by ELISA, read-out: cellular 1050 values, PDGFR-β
T2 construct: The murine embryonal fibroblast cell line NIH3T3 expresses endogenously high levels of PDGFR-β; endogenous in cells; host or cells: NIH3T3 murine embryonal fibroblast cell line
T2 sequence (P05622 32-1098): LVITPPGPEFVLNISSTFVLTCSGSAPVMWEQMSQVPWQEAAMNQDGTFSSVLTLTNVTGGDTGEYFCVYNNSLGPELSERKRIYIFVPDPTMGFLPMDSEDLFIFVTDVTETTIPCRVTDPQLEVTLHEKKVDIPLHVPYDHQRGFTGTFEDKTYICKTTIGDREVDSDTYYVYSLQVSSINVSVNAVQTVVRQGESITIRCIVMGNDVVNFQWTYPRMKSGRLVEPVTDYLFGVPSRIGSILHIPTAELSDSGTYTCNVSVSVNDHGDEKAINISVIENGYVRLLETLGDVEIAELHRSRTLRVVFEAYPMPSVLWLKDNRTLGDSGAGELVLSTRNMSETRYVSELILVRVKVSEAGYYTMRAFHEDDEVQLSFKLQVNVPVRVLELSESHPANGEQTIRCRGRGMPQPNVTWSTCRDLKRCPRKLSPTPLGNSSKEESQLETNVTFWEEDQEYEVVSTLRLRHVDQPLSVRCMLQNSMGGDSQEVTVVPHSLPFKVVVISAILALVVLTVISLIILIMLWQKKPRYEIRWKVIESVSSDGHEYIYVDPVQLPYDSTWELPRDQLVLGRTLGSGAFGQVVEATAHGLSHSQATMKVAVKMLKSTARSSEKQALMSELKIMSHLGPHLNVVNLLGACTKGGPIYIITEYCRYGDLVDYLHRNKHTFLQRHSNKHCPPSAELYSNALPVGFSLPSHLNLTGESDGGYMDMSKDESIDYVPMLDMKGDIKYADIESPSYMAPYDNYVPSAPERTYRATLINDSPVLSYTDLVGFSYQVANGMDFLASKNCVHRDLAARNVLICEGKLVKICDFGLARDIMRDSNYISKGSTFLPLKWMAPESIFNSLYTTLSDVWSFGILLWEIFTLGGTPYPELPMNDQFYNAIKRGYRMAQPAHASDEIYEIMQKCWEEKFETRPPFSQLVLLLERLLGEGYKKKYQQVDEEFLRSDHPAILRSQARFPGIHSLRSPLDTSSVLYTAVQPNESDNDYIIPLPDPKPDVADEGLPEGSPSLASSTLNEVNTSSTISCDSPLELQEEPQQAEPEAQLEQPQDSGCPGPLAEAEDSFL
Method: The murine embryonal fibroblast cell line NIH3T3 expresses endogenously high levels of PDGFR-β. The compound prepared in Example 2 above was tested for the ability to inhibit tyrosine auto-phosphorylation of this receptor after stimulation with platelet-derived growth factor BB (PDGF-BB). The NIH3T3 cells were plated into multi-well cell culture plates in Dulbecco's Modified Eagle Medium (DMEM) supplemented with 10% FCS. The medium was removed and then replaced with DMEM without FCS and cells serum starved overnight at 37° C. On the day of the assay the compound was 1:3 serial diluted from 10 mM stocks in 100% DMSO and then were 1:100 diluted to each well of cells in DMEM without FCS to create final solutions containing 1% DMSO and an eight point compound dose response curve starting at 10^−6 M, 10^−7 M, or 10^−8 M. The compound was added in duplicate to columns of the multi-well plate. […] Cells were lysed, and then levels of phosphorylated PDGFR-β were determined in a sandwich ELISA assay formatted in a multi-well plate using a PDGFR-β specific capture antibody and an anti-phosphotyrosine PDGFR-β detection antibody. […] IC50 values were determined by fitting the converted eight point dose response data to a four-parameter logistic equation using GRAPHPAD PRISM® 5.01 software.

- IC50 [1]: 0.37 nM
- IC50 [2]: 3.2 nM
Compound: Nc1nnn2cccc(-c3ccc(NC(=O)Nc4cccc(Cl)c4)cc3)c12 [compound of Formula (I), 1-(4-(3-amino-[1,2,3]triazolo[1,5-a]pyridin-4-yl)phenyl)-3-(3-chlorophenyl)urea]
